Each structure is given as a SMILES string.

A short description of this data set: gradient 5% acetonitrile 3 min, to 50% in 2 min, to 85% in 15 min, held 3 min, 100 µL/min. Conditions: column: Zorbax Extend-C18 2.1 x 50 mm; eluents: water / acetonitrile, 0.1% formic acid. In outline:
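Retention times come from adduct peaks that were picked computationally and then checked by hand. The standards, pure and pooled in mixtures of ~100 molecules, were run on a Zorbax Extend-C18 column (2.1 × 50 mm, 1.8 μm) at 100 μL/min with water and acetonitrile, each with 0.1% formic acid. Detection was by quadrupole time-of-flight mass spectrometry in positive and negative ionization mode, with a dead volume of 40 μL and a dwell volume of 900 μL.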
Regarding `Clc1cccc(-c2nc3ccc(Cl)cn3c2Nc2ccc3c(c2)OCCO3)c1`, the RP-LC retention time was determined as 939 s. The result for `CNC(=O)c1cnn(-c2cccc(F)c2)c1-n1cccc1` reads 777 s; that for `Cc1ccc(Cl)cc1N1CCN(C(=O)c2csc(C(=O)NC3CC3)n2)CC1`, 972 s.

The compound `Cn1cnc(S(=O)(=O)N2CCC[C@H](n3c(=O)n(C)c4cccnc43)C2)c1` had an RP-LC retention time of 654 s.

The compound `COc1cc2c(cc1OC)[C@@H](C(=O)Nc1ccc(F)cc1)[C@@H]1CCCCN1C2=O` yielded an RP-LC retention time of 773 s. The value for `CCN(CC)S(=O)(=O)c1ccc2c(c1)CC(C(=O)NCCC1=CCCCC1)N2C(C)=O` (centres undefined) was 921 s; that for `Cc1c(C(=O)NCC(C)C)c(C)n2cnn(CC(=O)NCCc3ccccc3)c(=O)c12` was 743 s. The value for `Cc1c(C(=O)NC2CC2)cc(-c2ccccc2)n1C` was 605 s; that for `Cc1cc(Cl)ccc1S(=O)(=O)N(C)C1CCc2nn(CC3CC3)c(=O)n2CC1` (centres undefined) was 772 s; that for `NS(=O)(=O)c1ccc(CCNC(=O)c2coc(NC(=O)c3cccs3)n2)cc1` was 603 s. For `Cc1ccccc1CNS(=O)(=O)c1ccc2c(c1)C(=O)N(C)c1ncccc1O2`, the RP-LC retention time was 1010 s. The value for `Cc1ccn2cc(-c3ccc(NS(=O)(=O)c4ccc5cccc6c5c4CC6)cc3)nc2n1` was 748 s. `Cc1oc2ncnc(N3CCCC(C(=O)Nc4cccc(Cl)c4)C3)c2c1C` (centres undefined) gave an RP-LC retention time of 1050 s.

Turning to `Cc1cccc(Sc2nccnc2SCC(=O)N2CCN(c3ccccn3)CC2)c1`, the RP-LC retention time is 721 s. The value for `Cc1cc(C)cc(N2C=C(C(=O)N3CCOCC3)S(=O)(=O)c3ccccc32)c1` was 826 s; that for `Cc1noc(C)c1Cc1c(C(=O)NCCn2c(C)cnc2C2CC2)noc1C` was 623 s; that for `CC(C)Cn1ccc2c(cc(C(=O)Nc3ccc(C(C)C)cc3)n2C)c1=O` was 1030 s.

In turn, `Cc1cc(C)cc(C(=O)N2CCC3(CC2)NC(=O)c2ccc(F)cc2N3C)c1` had an RP-LC retention time of 787 s. The value for `Cc1nc(-c2ccc(F)cc2)nc2c1CCC(=O)N2Cc1ccco1` was 720 s.

For the compound `CCc1nc(-c2csc(S(=O)(=O)N3CCCC(C(=O)Nc4ccc(C)c(C)c4)C3)c2)no1` (centres undefined), the RP-LC retention time stood at 1110 s. The result for `CCC(CC)C(=O)N1CCCN(C2=NS(=O)(=O)C(c3ccc(F)cc3)=C2C)CC1` reads 811 s; that for `COc1ccc(-c2cc(N)n[nH]2)c(OC)c1`, 595 s; that for `CCOC(=O)c1cnc2nc(C)ccc2c1Nc1ccccc1F`, 684 s. The result for `Cc1ccc(S(=O)(=O)Cc2ccc(-c3nc(-c4cccc(-c5ccnn5C)c4)no3)cc2)cc1` reads 1140 s.

Compound `Cc1noc([C@@H]2CN(C(=O)CC3CCCC3)C[C@H]2CO)n1` showed an RP-LC retention time of 672 s. The result for `CCOc1ccc(C2C(=O)N(C3CCCCC3)CC(=O)N2Cc2ccco2)cc1OC` (centres undefined) reads 879 s; that for `CCN(CC)C(=O)c1ccc2c(c1)N(CC(=O)N1CCN(c3ccccn3)CC1)C(=O)CO2`, 574 s; that for `CCc1ccc(C(=O)c2cnc3ccc(OC)cc3c2N2CCN(CC)CC2)cc1`, 619 s.

In turn, `Cc1ccc(-c2cc3c(=O)n(Cc4nc(-c5ccc(F)cc5)no4)ncn3n2)c(C)c1` yielded an RP-LC retention time of 1220 s. The result for `O=C(Nc1nnc(C2CC(=O)N(c3ccccc3)C2)o1)c1ccccn1` (centres undefined) reads 620 s; that for `CCOC(=O)COc1cc(-c2ccc(C)cc2)nc2ccc(NC(=O)COc3ccccc3)cc12`, 902 s. The compound `Cc1cc2c(F)c(Oc3ncnn4cc(OC[C@@H](C)OC(=O)[C@H](C)N)c(C)c34)ccc2[nH]1` showed an RP-LC retention time of 746 s. The result for `O=C(CCC1CCCC1)NCCc1noc(C2CC2)n1` reads 807 s; that for `Cc1nc(-c2csc(S(=O)(=O)NCc3ccccc3Cl)c2)sc1C`, 1030 s; that for `CCOc1ccc(S(=O)(=O)c2ccc(C)cc2)c2c1no[n+]2[O-]`, 1050 s. The result for `O=C(CC1CCCCC1)N1CCN(c2ccc(=O)n(-c3ccc(F)cc3)n2)CC1` reads 901 s. The result for `Cc1cccc(Nc2c(-c3ccc(N4CCOCC4)cc3)nc3ncccn23)c1` reads 717 s; that for `Cc1ccccc1Nc1c(-c2cccc(Br)c2)nc2ccc(Br)cn12`, 1150 s. Take `CCn1c(=O)sc2cc(S(=O)(=O)N3CCC(C(=O)Nc4ccc(C)cc4C)CC3)ccc21`: the RP-LC retention time came out at 932 s.

With `O=C(Cn1ccc2ccccc21)N1CCN(c2ccc(F)cc2)CC1`, the RP-LC retention time stood at 884 s.

In turn, `O=C([C@@H]1C[C@H](Oc2ccccc2)CN1C(=O)C1CCC1)N1CCCC1` registered an RP-LC retention time of 750 s. The result for `CCC(=O)Nc1ccc(SCc2cc(C)ccc2C)nn1` reads 919 s; that for `Cc1ccsc1C(=O)N1CCC2(CC1)NC(=O)N(Cc1ccccc1)C2=O`, 768 s; that for `Cc1ccc(Nc2c(-c3cc(Br)ccc3O)nc3ncccn23)cc1`, 1050 s. With `O=C(NCc1csc(-c2cccs2)n1)C1CCN(C(=O)c2ccc(F)c(F)c2)CC1`, the RP-LC retention time is 770 s.

`O=C(C1CCN(c2cnn(Cc3ccccc3)c(=O)c2)CC1)N1CCCCCC1` returned an RP-LC retention time of 774 s. The value for `Cc1ccc(C)c(NS(=O)(=O)c2ccc(-c3c(C)noc3C)cc2)c1` was 996 s; that for `CC(C)NC(=O)c1ccc(OCC2CCN(C(=O)c3ccccc3C(F)(F)F)CC2)cc1` was 899 s. In the case of `COc1ccccc1-c1noc(C2CCCN2C(=O)c2ccc(C)s2)n1` (centres undefined), the RP-LC retention time is 996 s. The value for `Cc1cccc(-n2c(=O)c3c(cc(C)n3C)n(CC(=O)Nc3cc(Cl)ccc3C)c2=O)c1` was 960 s. The result for `Cc1nc2cc(-c3noc(-c4cccc(Cl)c4)n3)ccc2o1` reads 1210 s. The compound `COc1nn(C)cc1C(=O)NCc1cc(-c2ccco2)on1` registered an RP-LC retention time of 644 s.

In the case of `CC1CCC(NC(=O)C2CCCN(S(=O)(=O)c3c[nH]c(C(=O)N4CCCCCC4)c3)C2)CC1` (centres undefined), the RP-LC retention time came out at 938 s. The value for `COc1ccc(-c2noc(C3CC(=O)N(c4ccc(C)cc4)C3)n2)c(OC)c1` (centres undefined) was 888 s; that for `CCN1C(=O)Cc2cc(C(=O)NCc3ccccc3)ccc21` was 706 s. The value for `CCSc1nnc(NC(=O)CSc2nn3c(=O)c(C)nnc3s2)s1` was 640 s; that for `CCCCn1cnc2c(-c3ccccc3)cn(CC(=O)N3CCCC3)c2c1=O` was 836 s; that for `CCC(C)NC(=O)c1cnn(-c2cc(-c3nc(C4CC4)no3)ccn2)c1C` (centres undefined) was 973 s. The value for `O=C(NCCc1ccncc1)C1CCc2sc(C(=O)N3CCCC3)cc2C1` (centres undefined) was 506 s; that for `O=C(COc1ccc2c(c1)OCO2)N1CCN(c2cc(N3CCCCC3)ncn2)CC1` was 587 s. `C/C=C/c1ccc(OCC(O)CN2CCN(C)CC2)c(OC)c1` (centres undefined) showed an RP-LC retention time of 560 s. In turn, `Cc1ccc(C(=O)NC2CCCCCCC2)cc1NC(=O)C1=CSCCO1` showed an RP-LC retention time of 949 s. The result for `CCN(CC)C(=O)Cn1c(=O)c2cnc(-c3ccccc3)nc2n(C)c1=O` reads 854 s. The result for `Clc1ccc(-c2csc(N3CCC(c4ccccc4)C3)n2)cc1` (centres undefined) reads 814 s. In turn, `Cc1noc(C2CN(C(=O)Nc3cc(Cl)ccc3C)CC23CCOCC3)n1` (centres undefined) yielded an RP-LC retention time of 760 s. `Cc1ccc(NC(=O)N2CCC(n3cnc4c(Cl)cccc4c3=O)CC2)cc1C` had an RP-LC retention time of 877 s. The result for `Cc1ccc(Cn2c(N3CCCC(C(=O)Nc4ccc(C)cc4)C3)nc3ccsc3c2=O)cc1` (centres undefined) reads 1080 s; that for `CSc1cccc(NC(=O)Cn2cnc3nc4c(cc3c2=O)CCCC4)c1`, 755 s; that for `CSc1ncccc1C(=O)N1CCCn2nc(-c3cccc(Cl)c3)cc2C1`, 827 s. The result for `COc1ccc(C(=O)O)nc1C` reads 552 s; that for `COc1ccc(N2CCN(c3cc(SCC(=O)Nc4cccc(Cl)c4)ncn3)CC2)cc1`, 1030 s. In the case of `COc1ccc(-c2noc(C3CCCN3C(=O)c3ccc(OC)nc3)n2)cc1` (centres undefined), the RP-LC retention time was 879 s. The result for `Cc1ccc(-c2noc(Cn3c(=O)n(C(C)C)c(=O)c4ccccc43)n2)cc1C` reads 1220 s; that for `COC(=O)c1ccc(CSc2nnc(NC(=O)C3(c4cccs4)CCCC3)s2)o1`, 978 s. Take `C=CCn1c(C)c(CC(=O)Nc2ccc(F)c(F)c2)c(=O)n2nc(-c3ccc(C)cc3)nc12`: the RP-LC retention time came to 838 s.

As to `O=C(NC1CCN(Cc2ccccc2)CC1)c1ccc(I)cc1`, the RP-LC retention time came to 727 s. The compound `Cc1ccc(CNC(=O)Cn2c(N3CCCCC3)nc(C)cc2=O)cc1` yielded an RP-LC retention time of 661 s. The result for `COCCOC1CN(C2CCN(Cc3cccc(C#N)c3)CC2)C12CCCCC2` (centres undefined) reads 557 s.

The compound `CCCC(NC(=O)CCc1ccccc1)C(=O)Nc1nc2ccccc2[nH]1` (centres undefined) showed an RP-LC retention time of 718 s.

These data come from the METLIN SMRT retention time set (Domingo-Almenara et al. 2019).
